# According to ChEMBL document CHEMBL1201862, “PubChem BioAssay data set” (2004):
# Calls of active or inactive are those of the source.
# What was measured:
# [1] = target: Genome polyprotein (dengue virus type 2, UniProt P29990); assay: Dengue-2 NS5 methyltransferase inhibitors, primary screen, biochemical, confirmation dose response (AID 588689); assay type: functional
# [2] = target: Glucose-6-phosphate 1-dehydrogenase (Homo sapiens, UniProt P11413); assay: human G6PD enzyme inhibitors, dose response, selectivity assay for P. falciparum G6PD inhibitor project, biochemical, fluorescence (AID 504792); assay type: functional
# [3] = target: T1, Low molecular weight phosphotyrosine protein phosphatase (Homo sapiens, UniProt P24666); assay type: functional; details: read-out: IC50_Mean;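 further: Dose-response confirmation assay measuring inhibition of LMPTP enzyme activity by fluorescence intensity read-out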
# T1 sequence (P24666 whole entry): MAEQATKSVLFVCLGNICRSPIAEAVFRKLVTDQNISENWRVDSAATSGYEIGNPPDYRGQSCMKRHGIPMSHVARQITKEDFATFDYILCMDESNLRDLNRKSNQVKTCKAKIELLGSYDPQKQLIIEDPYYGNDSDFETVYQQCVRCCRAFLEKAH
# [4] = test system: Streptococcus sp. 'group A'; assay: growth inhibition of control SK(-) GAS strain, dose response, counter-screen for streptokinase expression inhibitor project, luminescence, kanamycin, BacTiterGlo, confirmation (AID 1900); assay type: functional, organism-based
# [5] = test system: Streptococcus; assay: Group A Streptococcus viability loss, dose response, counter-screen for streptokinase expression inhibitor project, luminescence, BacTiterGlo (AID 1915); assay type: functional, organism-based;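 further: potency for reduction of bacterial viability or growth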
# [6] = test system: INS1; assay: beta cell apoptosis inhibitors, cytokine rescue, dose response, luminescence, retest (AID 449756); assay type: functional, cell-based; details: Rattus norvegicus;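 further: cell death triggered by IL-1 beta plus TNF-alpha plus IFN-gamma mixture; protective hits raise ATP signal compared with cytokine alone wells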
# [7] = Luminescence Cell-Based Dose Retest to Confirm Inhibitors of Cancer Stem Cells. [Related pubchem assays (depositor defined):AID2717, AID2721]; assay type: functional; details: Homo sapiens
# [8] = target: T2, Apoptotic protease-activating factor 1 (Homo sapiens, UniProt O14727); assay type: functional
# T2 sequence (O14727 whole entry): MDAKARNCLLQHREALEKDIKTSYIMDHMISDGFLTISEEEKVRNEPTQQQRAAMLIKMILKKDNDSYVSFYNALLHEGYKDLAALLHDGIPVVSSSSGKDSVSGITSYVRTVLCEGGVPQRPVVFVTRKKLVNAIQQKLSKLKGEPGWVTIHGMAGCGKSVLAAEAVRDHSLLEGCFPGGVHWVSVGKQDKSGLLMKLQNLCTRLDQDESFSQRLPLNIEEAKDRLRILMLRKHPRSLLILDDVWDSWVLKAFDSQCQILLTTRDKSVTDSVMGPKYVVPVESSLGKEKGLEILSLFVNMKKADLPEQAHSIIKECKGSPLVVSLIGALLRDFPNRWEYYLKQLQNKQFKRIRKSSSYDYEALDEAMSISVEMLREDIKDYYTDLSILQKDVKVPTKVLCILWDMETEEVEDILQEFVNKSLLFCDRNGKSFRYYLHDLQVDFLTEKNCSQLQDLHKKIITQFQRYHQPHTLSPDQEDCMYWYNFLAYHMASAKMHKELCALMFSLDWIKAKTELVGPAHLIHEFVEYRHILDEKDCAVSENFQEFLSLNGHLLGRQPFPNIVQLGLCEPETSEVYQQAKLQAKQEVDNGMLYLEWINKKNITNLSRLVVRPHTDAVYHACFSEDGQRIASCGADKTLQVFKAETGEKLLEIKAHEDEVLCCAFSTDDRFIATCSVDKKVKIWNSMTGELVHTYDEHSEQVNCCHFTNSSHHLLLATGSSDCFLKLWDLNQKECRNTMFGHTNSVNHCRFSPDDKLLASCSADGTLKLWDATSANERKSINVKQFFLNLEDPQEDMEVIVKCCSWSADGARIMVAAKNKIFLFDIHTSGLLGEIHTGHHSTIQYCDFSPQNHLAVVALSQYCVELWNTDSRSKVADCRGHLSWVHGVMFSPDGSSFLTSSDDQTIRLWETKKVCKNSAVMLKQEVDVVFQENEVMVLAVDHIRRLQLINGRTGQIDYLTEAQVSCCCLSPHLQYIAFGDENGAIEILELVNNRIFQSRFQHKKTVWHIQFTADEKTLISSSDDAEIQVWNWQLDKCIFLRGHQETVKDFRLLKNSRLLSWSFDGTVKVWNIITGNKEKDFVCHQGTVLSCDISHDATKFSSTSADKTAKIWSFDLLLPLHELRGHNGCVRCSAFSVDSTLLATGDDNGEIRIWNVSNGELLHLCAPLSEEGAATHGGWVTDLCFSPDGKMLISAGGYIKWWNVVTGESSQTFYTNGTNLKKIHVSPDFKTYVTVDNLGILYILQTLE
# [9] = target: Nonstructural protein 1 (Influenza A virus, UniProt Q194T2); assay type: functional, Influenza A virus (A/California/07/2009(H1N1))
# [10] = target: T3, Endoribonuclease toxin MazF (Escherichia coli K-12, UniProt P0AE70); assay: MazF toxin RNase activators, dose response, biochemical, fluorescence, single-stranded RNA substrate, uHTS hits (AID 588481); assay type: functional
# T3 sequence (P0AE70 whole entry): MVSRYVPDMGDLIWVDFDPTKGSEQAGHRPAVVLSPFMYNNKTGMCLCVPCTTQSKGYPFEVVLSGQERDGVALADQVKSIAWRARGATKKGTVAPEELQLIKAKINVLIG
# [11] = target: T3, Endoribonuclease toxin MazF; assay: fluorescent RNA oligo signal without MazF, dose response, counter-screen for MazEF activator project, biochemical, fluorescence, single-stranded RNase substrate (AID 588502); assay type: functional
# [12] = target: Induced myeloid leukemia cell differentiation protein Mcl-1 (Homo sapiens, UniProt Q07820); assay type: functional
# [13] = target: T4, RNA-binding protein pos-1 (Caenorhabditis elegans, UniProt G5EF15); assay: inhibitors of POS-1/mex-3 RNA binding, dose response, biochemical, fluorescence polarization (AID 1964);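 further: purified POS-1 fused to maltose binding protein made in E. coli; potency of compounds blocking POS-1 binding to fluorescent RNA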
# T4 sequence (G5EF15 whole entry): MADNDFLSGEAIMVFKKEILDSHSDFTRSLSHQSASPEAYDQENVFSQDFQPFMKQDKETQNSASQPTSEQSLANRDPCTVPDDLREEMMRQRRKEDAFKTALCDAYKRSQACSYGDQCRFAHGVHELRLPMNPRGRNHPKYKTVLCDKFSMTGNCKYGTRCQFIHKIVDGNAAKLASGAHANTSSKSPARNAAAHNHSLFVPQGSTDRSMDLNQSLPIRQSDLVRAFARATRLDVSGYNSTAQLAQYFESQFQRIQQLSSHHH
# [14] = target: T5, Zinc finger protein mex-5 (Caenorhabditis elegans, UniProt Q9XUB2); assay: MEX-5/TCR-2 RNA interaction inhibitors, dose response, biochemical, C. elegans, fluorescence polarization (AID 1960)
# T5 sequence (Q9XUB2 whole entry): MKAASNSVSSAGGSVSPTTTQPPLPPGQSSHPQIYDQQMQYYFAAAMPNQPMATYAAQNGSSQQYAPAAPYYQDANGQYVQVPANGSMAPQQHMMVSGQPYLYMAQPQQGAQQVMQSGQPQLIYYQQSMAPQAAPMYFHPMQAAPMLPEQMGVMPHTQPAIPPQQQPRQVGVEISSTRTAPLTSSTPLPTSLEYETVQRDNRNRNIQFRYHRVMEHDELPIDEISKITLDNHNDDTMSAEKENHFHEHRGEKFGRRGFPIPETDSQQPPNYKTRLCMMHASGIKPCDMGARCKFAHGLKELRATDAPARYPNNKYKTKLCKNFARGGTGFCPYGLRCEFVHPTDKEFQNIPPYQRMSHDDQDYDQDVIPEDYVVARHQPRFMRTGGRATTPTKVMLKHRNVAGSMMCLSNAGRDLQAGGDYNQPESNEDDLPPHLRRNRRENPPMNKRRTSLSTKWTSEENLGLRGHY
# [15] = target: Dual specificity tyrosine-phosphorylation-regulated kinase 1A (Rattus norvegicus, UniProt Q63470); assay type: biochemical, Homo sapiens
# [16] = insulin promoter down-regulators in MIN6 cells, imaging, high-content screening, mouse beta cells (AID 1628); assay type: functional
# [17] = cytotoxicity toward DRD oncogenic fibroblasts, dose response, cell-based, non-viral oncogenic, luminescence (AID 1934); assay type: functional; details: Homo sapiens
# [18] = test system: BJ; assay: cytotoxicity toward BJ-TERT-LT-ST fibroblasts, dose response, cell-based, RAS-independent, luminescence (AID 1935); assay type: functional; details: Homo sapiens;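 further: BJ fibroblasts immortalized with TERT plus LT and ST oncogenes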
# [19] = test system: BJ; assay: cells; assay type: functional, cell-based; details: Homo sapiens
# [20] = cytotoxicity in MIN6 insulinoma cells, dose response, cytotoxicity control, cell-based, mouse insulinoma (AID 2122); assay type: functional;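 further: confirmatory high-throughput counterscreen run to flag cytotoxic compounds; mouse MIN-6 beta cells carrying an insulin promoter eGFP reporter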
# [21] = target: T6, Microphthalmia-associated transcription factor (Homo sapiens, UniProt O75030); assay: TRPM1 promoter luciferase signal decrease, dose response, MITF inhibitor project, cell-based, SK-MEL-5, cherry-picked, set 3 (AID 493073); assay type: functional
# T6 sequence (O75030 whole entry): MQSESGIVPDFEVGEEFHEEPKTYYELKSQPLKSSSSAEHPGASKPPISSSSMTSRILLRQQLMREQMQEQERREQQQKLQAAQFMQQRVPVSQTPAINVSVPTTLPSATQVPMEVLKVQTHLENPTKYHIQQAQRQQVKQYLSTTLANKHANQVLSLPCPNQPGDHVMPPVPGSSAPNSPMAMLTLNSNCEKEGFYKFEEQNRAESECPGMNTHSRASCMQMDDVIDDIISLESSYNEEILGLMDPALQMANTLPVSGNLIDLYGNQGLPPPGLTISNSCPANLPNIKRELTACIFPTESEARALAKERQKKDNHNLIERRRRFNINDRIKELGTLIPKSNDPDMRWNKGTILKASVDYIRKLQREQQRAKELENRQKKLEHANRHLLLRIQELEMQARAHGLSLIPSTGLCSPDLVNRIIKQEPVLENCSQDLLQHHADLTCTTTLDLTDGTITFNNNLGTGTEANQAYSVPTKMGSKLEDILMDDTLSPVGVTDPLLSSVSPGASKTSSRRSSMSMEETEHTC
# [22] = test system: BJ; assay: cytotoxicity toward BJ-TERT fibroblasts, dose response, cell-based, RAS-independent, luminescence (AID 1933); assay type: functional; details: Homo sapiens
# [23] = inhibitors of clade B AD8 Env fusion, dose response, cell-based, cherry-pick (AID 652062); assay type: functional;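 further: luciferase signal from cell-cell fusion driven by HIV-1 clade B AD8 Env; potency is for inhibitors of fusion seen as a drop in luminescence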
# [24] = CEM21 lymphoblast cell cytotoxicity, dose response, cytotoxicity control for viral fusion inhibitor project, CellTiter-Glo luminescence, cherry-picked (AID 652042); assay type: functional, cell-based;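 further: potency for signal decrease meaning cytotoxicity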
# [25] = inhibitors of HIV Env-driven cell fusion, dose response, cherry-pick (AID 652057); assay type: functional, cell-based
# [26] = off-target signal loss in HeLa-CEM21 co-culture – HeLa F-luc CTL cells, cherry-picked, counter-screen for HIV-1 Env fusion inhibitor project, dose response (AID 652040); assay type: functional, cell-based;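 further: potency for signal decrease marking cytotoxic or nonspecific inhibition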
# [27] = ZM109 Env clade C HIV-1 fusion inhibitors, dose response, HeLa effector, CEM target cells, luciferase, cherry-pick (AID 652058); assay type: functional, cell-based
# [28] = target: T7, Ubiquitin-conjugating enzyme E2 N (Homo sapiens, UniProt P61088); assay type: functional;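 further: Dose-response confirmation in a TR-FRET assay detecting UBC13-driven polyubiquitin chain formation, inhibition measured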
# T7 sequence (P61088 whole entry): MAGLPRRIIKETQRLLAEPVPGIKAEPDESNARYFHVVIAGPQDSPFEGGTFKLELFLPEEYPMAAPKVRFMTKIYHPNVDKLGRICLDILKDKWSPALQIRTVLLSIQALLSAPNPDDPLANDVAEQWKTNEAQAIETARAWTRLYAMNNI
# Glucose-6-phosphate 1-dehydrogenase, sequence (P11413 whole entry): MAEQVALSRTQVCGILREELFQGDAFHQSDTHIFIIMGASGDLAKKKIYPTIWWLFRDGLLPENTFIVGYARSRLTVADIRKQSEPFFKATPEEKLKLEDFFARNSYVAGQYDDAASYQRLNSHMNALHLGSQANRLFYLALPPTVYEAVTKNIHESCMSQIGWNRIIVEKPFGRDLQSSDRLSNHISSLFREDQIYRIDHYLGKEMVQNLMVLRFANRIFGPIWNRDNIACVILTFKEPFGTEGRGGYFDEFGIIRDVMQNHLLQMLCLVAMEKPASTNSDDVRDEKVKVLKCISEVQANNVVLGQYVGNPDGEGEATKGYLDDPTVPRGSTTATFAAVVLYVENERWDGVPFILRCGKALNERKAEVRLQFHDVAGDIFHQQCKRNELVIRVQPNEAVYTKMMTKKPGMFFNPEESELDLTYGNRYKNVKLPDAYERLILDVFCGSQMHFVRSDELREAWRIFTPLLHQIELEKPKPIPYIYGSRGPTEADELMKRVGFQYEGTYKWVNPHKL
# Nonstructural protein 1, sequence (Q194T2 whole entry): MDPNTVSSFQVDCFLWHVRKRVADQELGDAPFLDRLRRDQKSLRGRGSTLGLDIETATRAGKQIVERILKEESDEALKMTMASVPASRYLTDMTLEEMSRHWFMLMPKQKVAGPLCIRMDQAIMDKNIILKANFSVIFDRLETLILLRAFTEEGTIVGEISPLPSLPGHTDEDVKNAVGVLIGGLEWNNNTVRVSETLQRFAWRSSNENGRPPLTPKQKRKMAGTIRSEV
# Induced myeloid leukemia cell differentiation protein Mcl-1, sequence (Q07820 whole entry, the tested form may be a part): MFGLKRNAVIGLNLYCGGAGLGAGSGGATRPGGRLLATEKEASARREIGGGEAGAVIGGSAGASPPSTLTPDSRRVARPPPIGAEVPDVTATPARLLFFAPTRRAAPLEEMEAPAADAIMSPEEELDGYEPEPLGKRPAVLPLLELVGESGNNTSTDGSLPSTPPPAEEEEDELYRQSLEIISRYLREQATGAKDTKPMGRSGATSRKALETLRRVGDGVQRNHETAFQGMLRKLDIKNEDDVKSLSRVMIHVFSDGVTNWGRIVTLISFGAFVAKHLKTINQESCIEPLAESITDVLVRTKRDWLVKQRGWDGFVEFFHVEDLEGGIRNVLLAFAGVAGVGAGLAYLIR
# Genome polyprotein, sequence (P29990 2492-3391 limits assumed): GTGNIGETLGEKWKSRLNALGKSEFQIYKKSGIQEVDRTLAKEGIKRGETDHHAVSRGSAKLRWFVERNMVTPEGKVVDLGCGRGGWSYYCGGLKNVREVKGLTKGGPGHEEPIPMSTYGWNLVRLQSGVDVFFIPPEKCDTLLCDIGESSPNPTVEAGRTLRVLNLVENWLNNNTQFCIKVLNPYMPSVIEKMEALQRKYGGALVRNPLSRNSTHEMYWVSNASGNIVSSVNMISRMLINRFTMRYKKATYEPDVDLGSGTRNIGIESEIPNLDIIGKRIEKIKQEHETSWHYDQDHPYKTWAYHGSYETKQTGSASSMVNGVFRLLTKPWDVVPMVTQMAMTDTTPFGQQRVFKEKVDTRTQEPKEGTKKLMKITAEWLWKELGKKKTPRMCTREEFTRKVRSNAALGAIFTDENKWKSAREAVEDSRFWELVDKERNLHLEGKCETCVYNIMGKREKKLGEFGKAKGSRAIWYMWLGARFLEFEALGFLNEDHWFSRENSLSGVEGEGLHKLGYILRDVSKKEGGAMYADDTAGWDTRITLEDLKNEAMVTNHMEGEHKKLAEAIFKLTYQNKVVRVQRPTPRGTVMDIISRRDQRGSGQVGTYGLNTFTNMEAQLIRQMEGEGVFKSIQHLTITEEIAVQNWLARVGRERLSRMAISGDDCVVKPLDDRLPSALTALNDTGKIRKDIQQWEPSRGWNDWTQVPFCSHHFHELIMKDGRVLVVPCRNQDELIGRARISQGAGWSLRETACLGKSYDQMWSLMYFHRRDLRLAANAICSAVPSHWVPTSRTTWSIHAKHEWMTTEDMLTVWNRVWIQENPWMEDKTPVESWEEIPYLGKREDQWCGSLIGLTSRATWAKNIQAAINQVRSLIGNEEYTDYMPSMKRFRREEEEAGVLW
smiles,measurement,setting,value
COC(=O)CCC(=O)OC1(C)C(=O)C2=CN(c3ccccc3)C(c3ccc(OC)cc3)=CC2=C(Br)C1=O (stereo not given),IC50,[1],> 100 µM (active)
same,IC50,[2],42.1 µM (inactive)
O=C(CSc1nnc(-c2ccco2)o1)c1ccc[nH]1,IC50,[3],38.1 µM (inactive)
CCn1cc(C(=O)O)c(=O)c2cc(F)c(N3CCN(S(=O)(=O)c4ccc5c(c4)OCCO5)CC3)cc21,IC50,[3],5.48 µM (active)
same,EC50,[4],2.84 µM (active)
same,EC50,[5],5.81 µM (active)
CC(C)n1cnc2c(NCc3ccccc3)cc(N[C@H](C)CO)cc21,AC50,[6],1.52 µM (active)
same,AC50,[7],6.67 µM (active)
same,IC50,[8],1.22 µM (active)
same,IC50,[9],61.9 µM (active)
COC(=O)C1=C(C)N(C)C(C)=C(C(=O)OC)C1c1ccccn1,EC50,[10],> 99 µM (inactive)
same,EC50,[11],56.4 µM (inactive)
O=C1C(=Cc2cccn2-c2ccccc2)C(=O)c2ccccc21,IC50,[12],4.55 µM (active)
same,EC50,[10],> 99 µM (inactive)
same,EC50,[13],68.6 µM (active)
same,EC50,[11],60.7 µM (inactive)
same,EC50,[14],175 µM (active)
Cc1ccc(S(=O)(=O)SCCCSS(=O)(=O)c2ccc(C)cc2)cc1,IC50,[2],26.7 µM (inactive)
CCOC(=O)c1cnn(-c2c(Cc3ccccc3)c(C)nc3c(-c4ccccc4)c(C)nn23)c1N,IC50,[8],4 µM (active)
O=C1/C(=C/c2ccc3c(c2)OCO3)Oc2cc(OCC(=O)N3CCC[C@H]3C(=O)O)ccc21,AC50,[15],4.59 µM (active)
O=C1N=C(N2CCc3ccccc3C2)S/C1=C\c1ccc(O)cc1,AC50,[15],0.737 µM (active)
Cc1cc(-n2c(C)cc(C(=O)CCl)c2C)no1,IC50,[16],3.25 µM (active)
same,EC50,[17],10.9 µM (inconclusive)
same,EC50,[18],1.91 µM (inconclusive)
same,EC50,[19],2.76 µM (active)
same,IC50,[20],1.66 µM (active)
same,AC50,[21],5.5 µM (active)
same,EC50,[22],4.75 µM (inconclusive)
CCC(C)N(CCNC(=O)c1ccc2c(c1)NC(=O)c1ccccc1S2)C1CCCCC1 (stereo not given),AC50,[23],3.82 µM (active)
same,AC50,[24],45.1 µM (active)
same,AC50,[25],0.758 µM (active)
same,AC50,[26],1.09 µM (active)
same,AC50,[27],0.923 µM (active)
same,IC50,[28],> 20 µM (inactive)
same,IC50,[2],> 80 µM (inactive)
